Data published in ChEMBL document CHEMBL5331096, “Pseudo-irreversible butyrylcholinesterase inhibitors: Structure-activity relationships, computational and crystallographic study of the N-dialkyl O-arylcarbamate warhead” (Eur J Med Chem, 2023).
The source made the active and inactive calls. No cut-off for these calls is given here.

Legend:
Cholinesterase [1] = biological target: T1, Cholinesterase (Homo sapiens, UniProt P06276); assay: Inhibition of human BChE using butyrylthiocholine iodide as substrate preincubated for 5 mins followed by substrate addition and measured for 2 mins by spectrophotometry based Ellman's method
Acetylcholinesterase [2] = biological target: T2, Acetylcholinesterase (Homo sapiens, UniProt P22303); assay: Inhibition of human AChE using acetylthiocholine iodide as substrate preincubated for 5 mins followed by substrate addition and measured for 2 mins by spectrophotometry based Ellman's method
Acetylcholinesterase [3] = biological target: T2, Acetylcholinesterase; assay: Time dependent inhibition of human AChE using acetylthiocholine iodide as substrate preincubated for 5 mins followed by substrate addition and measured for 2 mins by spectrophotometry based Ellman's method; conditions: time 7.0 min
Cholinesterase [4] = biological target: T1, Cholinesterase; assay: Binding affinity to human BChE assessed as decarbamoylation rate constant at 25 degree C incubated for 1 hr by Ellman's method
Cholinesterase [5] = biological target: T1, Cholinesterase; assay: Binding affinity to human BChE assessed as half life incubated for 1 hr by Ellman's method
Cholinesterase [6] = biological target: T1, Cholinesterase; assay: Binding affinity to human BChE assessed as gibbs free energy change
Cholinesterase [7] = biological target: T1, Cholinesterase; assay: Time dependent inhibition of human BChE using butyrylthiocholine iodide as substrate preincubated for 5 mins followed by substrate addition and measured for 2 mins by spectrophotometry based Ellman's method; conditions: time 7.0 min
[8] = biological target: Cholinesterases; ACHE & BCHE (Homo sapiens) (UniProt P06276+P22303); assay: Selectivity ratio of IC50 for human AChE to IC50 for human BChE; assay type: protein assay
SH-SY5Y = assay: Cytotoxicity against human SH-SY5Y cells assessed as inhibition of cell growth measured after 48 hrs by MTS assay; assay type: functional, cell-based
HepG2 = assay: Cytotoxicity against human HepG2 cells assessed as inhibition of cell growth measured after 48 hrs by MTS assay; assay type: functional, cell-based; conditions: HepG2, 48 h
Cholinesterase [9] = biological target: T1, Cholinesterase; assay: Binding affinity to human BChE assessed as inhibition constant
Cholinesterase [10] = biological target: T1, Cholinesterase; assay: Binding affinity to human BChE assessed as carbamoylation rate constant by Ellman's method
Cholinesterase [11] = biological target: T1, Cholinesterase; assay: Binding affinity to human BChE assessed as pseudo-first order inhibition rate at 5 nM by Ellman's method
Cholinesterase [12] = biological target: T1, Cholinesterase; assay: Binding affinity to human BChE assessed as pseudo-first order inhibition rate at 10 nM by Ellman's method
Cholinesterase [13] = biological target: T1, Cholinesterase; assay: Binding affinity to human BChE assessed as pseudo-first order inhibition rate at 20 nM by Ellman's method
Cholinesterase [14] = biological target: T1, Cholinesterase; assay: Binding affinity to human BChE assessed as pseudo-first order inhibition rate at 50 nM by Ellman's method
Cholinesterase [15] = biological target: T1, Cholinesterase; assay: Inhibition of human BChE using butyrylthiocholine iodide as substrate preincubated for 30 mins followed by substrate addition and measured for 2 mins by spectrophotometry based Ellman's method
Cholinesterase [16] = biological target: T1, Cholinesterase; assay: Time dependent inhibition of human BChE using butyrylthiocholine iodide as substrate preincubated for 30 mins followed by substrate addition and measured for 2 mins by spectrophotometry based Ellman's method; conditions: time 32.0 min
Acetylcholinesterase [17] = biological target: T2, Acetylcholinesterase; assay: Inhibition of human AChE assessed as residual activity using acetylthiocholine iodide as substrate at 100 uM preincubated for 30 mins followed by substrate addition and measured for 2 mins by spectrophotometry based Ellman's method relative to control; conditions: time 32.0 min
Acetylcholinesterase [18] = biological target: T2, Acetylcholinesterase; assay: Time dependent inhibition of human AChE using acetylthiocholine iodide as substrate preincubated for 30 mins followed by substrate addition and measured for 2 mins by spectrophotometry based Ellman's method; conditions: time 32.0 min
Cholinesterase [19] = biological target: T1, Cholinesterase; assay: Binding affinity to human BChE plasma assessed as appearance of fluorescent bands at 10 uM incubated for 30 mins by Western blot analysis; assay type: cell-free
Cholinesterase [20] = biological target: T1, Cholinesterase; assay: Binding affinity to recombinant human BChE assessed as appearance of fluorescent bands at 10 uM incubated for 4 hrs by Western blot analysis
Acetylcholinesterase [21] = biological target: T2, Acetylcholinesterase; assay: Binding affinity to recombinant human AChE assessed as appearance of fluorescent bands at 10 uM incubated for 4 hrs by Western blot analysis
Cholinesterase [22] = biological target: T1, Cholinesterase; assay: Binding affinity to human BChE plasma assessed as appearance of fluorescent bands at 10 uM incubated for 30 mins in presence of ethopropazine by Western blot analysis; assay type: cell-free
Cholinesterase [23] = biological target: T1, Cholinesterase; assay: Binding affinity to human BChE plasma assessed as appearance of fluorescent bands at 10 uM incubated for 30 mins in presence of isoOMPA by Western blot analysis; assay type: cell-free
Cholinesterase [24] = biological target: T1, Cholinesterase; assay: Binding affinity to human BChE plasma assessed as appearance of fluorescent bands at 10 uM incubated for 30 mins in presence of BW284c51 by Western blot analysis; assay type: cell-free
Acetylcholinesterase [25] = biological target: T2, Acetylcholinesterase; assay: Binding affinity to recombinant human AChE assessed as appearance of fluorescent bands at 10 uM incubated for 4 hrs in presence of BW284c51 by Western blot analysis

T1 sequence (P06276 whole entry): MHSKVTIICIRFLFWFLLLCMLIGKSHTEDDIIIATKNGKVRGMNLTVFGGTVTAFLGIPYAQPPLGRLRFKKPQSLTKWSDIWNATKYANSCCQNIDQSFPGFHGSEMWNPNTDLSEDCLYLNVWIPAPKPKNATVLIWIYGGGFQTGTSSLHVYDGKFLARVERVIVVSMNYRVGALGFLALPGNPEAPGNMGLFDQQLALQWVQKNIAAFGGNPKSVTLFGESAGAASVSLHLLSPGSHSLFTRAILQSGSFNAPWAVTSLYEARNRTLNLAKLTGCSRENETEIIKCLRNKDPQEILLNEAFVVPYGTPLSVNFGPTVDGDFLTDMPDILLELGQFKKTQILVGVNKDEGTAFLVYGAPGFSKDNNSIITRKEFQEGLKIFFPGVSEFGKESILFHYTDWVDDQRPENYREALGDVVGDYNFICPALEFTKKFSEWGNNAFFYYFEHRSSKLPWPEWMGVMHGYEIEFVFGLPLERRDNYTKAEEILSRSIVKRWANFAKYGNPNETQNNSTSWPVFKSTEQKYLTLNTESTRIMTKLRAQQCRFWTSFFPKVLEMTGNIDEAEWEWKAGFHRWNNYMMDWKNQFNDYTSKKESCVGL
T2 sequence (P22303 whole entry): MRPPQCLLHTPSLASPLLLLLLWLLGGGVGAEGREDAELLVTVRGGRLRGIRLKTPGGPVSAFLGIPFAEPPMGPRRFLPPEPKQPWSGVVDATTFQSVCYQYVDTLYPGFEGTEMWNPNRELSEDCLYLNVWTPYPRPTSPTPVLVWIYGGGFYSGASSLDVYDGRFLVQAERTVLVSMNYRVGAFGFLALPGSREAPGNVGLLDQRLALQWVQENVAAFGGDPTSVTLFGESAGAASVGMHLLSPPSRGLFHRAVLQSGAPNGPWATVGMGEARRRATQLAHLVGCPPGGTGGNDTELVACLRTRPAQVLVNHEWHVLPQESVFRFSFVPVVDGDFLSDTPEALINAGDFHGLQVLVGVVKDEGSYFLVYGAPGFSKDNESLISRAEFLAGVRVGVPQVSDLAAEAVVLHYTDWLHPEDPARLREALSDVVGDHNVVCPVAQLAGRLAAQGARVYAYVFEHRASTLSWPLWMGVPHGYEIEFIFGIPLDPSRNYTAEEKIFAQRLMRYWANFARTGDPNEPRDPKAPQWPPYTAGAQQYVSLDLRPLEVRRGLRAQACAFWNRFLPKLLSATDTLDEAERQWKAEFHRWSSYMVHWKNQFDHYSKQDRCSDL
Chain of Cholinesterases; ACHE & BCHE (Homo sapiens) (P06276 whole entry, looked up): as the sequence (P06276 whole entry) above
Chain of Cholinesterases; ACHE & BCHE (Homo sapiens) (P22303 whole entry, looked up): as the sequence (P22303 whole entry) above

Compound	IC50 (Cholinesterase [1]) [µM]	IC50 (Acetylcholinesterase [2]) [µM]	inhibition (Acetylcholinesterase [3])	inhibition (Cholinesterase [7])	further results
CON(C)C(=O)Oc1cccc2c(CN(C)CCC3CCCCCC3)c[nH]c12	0.158	1.1	inactive		
C#CCN(CC#C)C(=O)Oc1cccc2c(CN(C)CCC3CCCCCC3)c[nH]c12	0.0328	0.464	Active		K (Cholinesterase [4]): 0.062 h⁻¹; T1/2 (Cholinesterase [5]): 11.2 h; deltaG (Cholinesterase [6]): 24 kcal/mol
CN(CCC1CCCCCC1)Cc1c[nH]c2c(OC(=O)N(C)C)cccc12	0.00176	0.559	Active	Active	Ratio IC50 [8]: 300; IC50 (SH-SY5Y): 5.8 µM; IC50 (HepG2): 7.1 µM; Ki (Cholinesterase [9]): 0.00105 µM; K (Cholinesterase [10]): 0.177 M⁻¹ s⁻¹; K (Cholinesterase [4]): 0.053 h⁻¹; T1/2 (Cholinesterase [5]): 13 h; deltaG (Cholinesterase [6]): 24 kcal/mol; Kobs (Cholinesterase [11]): 0.447 min⁻¹; Kobs (Cholinesterase [12]): 0.677 min⁻¹; Kobs (Cholinesterase [13]): 1.85 min⁻¹; Kobs (Cholinesterase [14]): 3.75 min⁻¹
C#CCN(C(=O)Oc1cccc2c(CN(C)CCC3CCCCCC3)c[nH]c12)C(C)C	0.0805	5.35	inactive	inactive	
O=C(Oc1cccc2cc[nH]c12)N1CCOCC1					IC50 (Cholinesterase [15]): 2.39 µM; inhibition (Cholinesterase [16]): inactive; Activity (Acetylcholinesterase [17]): 19.3%
CCN(C)C(=O)Oc1cccc2c(CN(C)CCC3CCCCCC3)c[nH]c12	0.0104	6.82	Active	Active	
CN(CCC1CCCCCC1)Cc1c[nH]c2cc(OC(=O)N(C)C)ccc12	0.0456	6.72	Active	Active	
CCN(CC)C(=O)Oc1cccc2c(CN(C)CCC3CCCCCC3)c[nH]c12	0.061	5.59	inactive	Active	K (Cholinesterase [4]): 0.002 h⁻¹; T1/2 (Cholinesterase [5]): 318 h; deltaG (Cholinesterase [6]): 25.9 kcal/mol
C#CCN(C)C(=O)Oc1ccc2c(CN(C)CCC3CCCCCC3)c[nH]c2c1	0.0102	1.46	inactive	inactive	
C#CCN(CC)C(=O)Oc1cccc2c(CN(C)CCC3CCCCCC3)c[nH]c12	0.0219	7.53	Active	Active	
CN(CCC1CCCCCC1)Cc1c[nH]c2c(O)cccc12	0.373	11.6			
C#CCN(C)C(=O)Oc1cccc2c(CN(C)CCC3CCCCCC3)c[nH]c12	0.00775	0.34	Active		K (Cholinesterase [4]): 0.014 h⁻¹; T1/2 (Cholinesterase [5]): 49 h; deltaG (Cholinesterase [6]): 24.8 kcal/mol
CN(C)C(=O)Oc1cccc2cc[nH]c12					IC50 (Cholinesterase [15]): 1.66 µM; inhibition (Cholinesterase [16]): Active; inhibition (Acetylcholinesterase [18]): Active; Activity (Acetylcholinesterase [17]): 2.4%
CCN(C)C(=O)Oc1cccc2cc[nH]c12					IC50 (Cholinesterase [15]): 1.39 µM; inhibition (Cholinesterase [16]): Active; inhibition (Acetylcholinesterase [18]): inactive; Activity (Acetylcholinesterase [17]): 56.2%
CC(C)N(C(=O)Oc1cccc2c(CN(C)CCC3CCCCCC3)c[nH]c12)C(C)C	0.23	4.63	inactive	inactive	
CC(C)N(C)C(=O)Oc1cccc2c(CN(C)CCC3CCCCCC3)c[nH]c12	0.114	2.83	Active	Active	
CN(CCC1CCCCCC1)Cc1c[nH]c2c(OC(=O)N3CCOCC3)cccc12	0.0114	3.58	Active		
CN(CCC1CCCCCC1)Cc1c[nH]c2c(OC(=O)N(C)C(C)(C)C)cccc12	0.147	10	inactive	inactive	
CC(C)N(C(=O)Oc1ccc2c(CN(C)CCC3CCCCCC3)c[nH]c2c1)C(C)C	0.0862	0.337	inactive	inactive	
CN(CCC1CCCCCC1)Cc1c[nH]c2c(OC(=O)N(C)N(C)C)cccc12	0.0132	5.56	Active	Active	
C#CCCCN(C)C(=O)Oc1cccc2c(CN(C)CCC3CCCCCC3)c[nH]c12	0.0123	1.08	Active	Active	K (Cholinesterase [4]): 0.015 h⁻¹; T1/2 (Cholinesterase [5]): 46.5 h; deltaG (Cholinesterase [6]): 24.8 kcal/mol
C#CCCCCCCCCCN(C)C(=O)Oc1cccc2c(CN(C)CCC3CCCCCC3)c[nH]c12	0.00377	0.123	Active	Active	Activity (Cholinesterase [19]): Active; Activity (Cholinesterase [20]): Active; Activity (Acetylcholinesterase [21]): Active; Activity (Cholinesterase [22]): inactive; Activity (Cholinesterase [23]): inactive; Activity (Cholinesterase [24]): inactive; Activity (Acetylcholinesterase [25]): inactive
CN(CCC1CCCCCC1)Cc1c[nH]c2c(OC(=O)N(C)Cc3ccccc3)cccc12	0.0116	0.531	Active	Active	K (Cholinesterase [4]): 0.007 h⁻¹; T1/2 (Cholinesterase [5]): 92.2 h; deltaG (Cholinesterase [6]): 25.2 kcal/mol
CN(CCC1CCCCCC1)Cc1c[nH]c2c(OC(=O)N3CCCCC3)cccc12	0.00528	0.529	Active		
CC(C)N(C(=O)Oc1cccc2cc[nH]c12)C(C)C					IC50 (Cholinesterase [15]): 12.8 µM; inhibition (Cholinesterase [16]): inactive; inhibition (Acetylcholinesterase [18]): inactive; Activity (Acetylcholinesterase [17]): 66.5%
